Where two headings read alike, the source gives them in different places.
How the values were obtained:
[1] = MTS staining for PBMC viability to measure cytotoxicity; assay type: cell-based, human; conditions: human, PHA-stimulated pooled PBMCs, HIV-infected, infected PBMCs, six days, MTS, unit printed only with high-test concentration, read-out: TC50 (50% cytotoxicity)
Procedure: (§1) Pooling (mixing) of mononuclear cells from more than one donor was used to minimize the variability observed between individual donors, which results from quantitative and qualitative differences in HIV infection and overall response to the PHA and IL-2 of primary lymphocyte populations. Each plate contains virus/cell control wells (cells plus virus) and experimental wells (drug plus cells plus virus). In this in vitro assay, PBMC viability remains high throughout the duration of the incubation period. Therefore, infected wells are used in the assessment of both antiviral activity and cytotoxicity. […] The PBMC cultures were maintained for six days following infection at 37° C., 5% CO2. After this period, cell-free supernatant samples were collected for analysis of reverse transcriptase activity. Following removal of supernatant samples, compound cytotoxicity was measured by addition of MTS to the plates for determination of cell viability. Wells were also examined microscopically and any abnormalities were noted. At assay termination, the assay plates were stained with the soluble tetrazolium-based dye MTS (CellTiter®96 Reagent, Promega) to determine cell viability and quantify compound toxicity. MTS is metabolized by the mitochondrial enzymes of metabolically active cells to yield a soluble formazan product, allowing the rapid quantitative analysis of cell viability and compound cytotoxicity. […] At termination of the assay, 10-25 μL of MTS reagent was added per well (10% final concentration based on volume) and the microtiter plates were then incubated for 4-6 hrs at 37° C., 5% CO2 to assess cell viability. Adhesive plate sealers were used in place of the lids, the sealed plate was inverted several times to mix the soluble formazan product and the plate was read spectrophotometrically at 490/650 nm with a Molecular Devices Vmax or SpectraMax Plus plate reader. […]

HIV-1JR-CSF [2] = system: HIV-1JR-CSF
HIV-1JR-CSF [3] = assay: Anti HIV efficacy evaluation in fresh human PBMCs (reverse transcriptase activity); conditions: for IC50: Human immunodeficiency virus 1, PBMC, in Homo sapiens, 144 h, read-out: IC50 (50% inhibition of virus replication)
human PBMCs = assay: MTS staining for PBMC viability to measure cytotoxicity; assay type: cell-based; conditions: fixed concentration (10 ng/mL) of TNF-α versus birinapant alone; within expected biological variability
Procedure: as §1

[4] = system: HIV-infected (GFP+) cultured CD4+ lymphocytes; assay: FACS of living (Active-Caspase 3 negative) HIV NL4.3 infected CD4+ lymphocytes; assay type: cell-based, human; conditions: single dose of 10 uM, within 24 hours
[5] = system: Mycobacterium tuberculosis (strain H37Rv); assay: Mycobacterium tuberculosis infected mice, lung bacterial burden; assay type: in vivo
HBV = assay: Treatment of HBV infected mice (serum HBV DNA); assay type: in vivo, hepatitis B virus
[6] = Toxicity of treatment in HBV-infected mice; assay type: in vivo
Procedure: C57BL/6 mice were infected with HBV and 6 days after infection were treated with weekly doses of birinapnat (30 mg/kg administered intraperitoneally) or vehicle control (DMSO) for a total of 3 weeks (3 doses).

[7] = system: primary human hepatocytes infected with HBV; assay: Viability (CellTiter-Glo) of primary human hepatocytes infected in vitro with HBV; assay type: cell-based; conditions: forty eight hours after treatment, in the absence of TNF-α
Excerpt: Primary human hepatocytes were infected in vitro with HBV using an adenoviral delivery system as previously described (Chin R, Earnest-Silveira L, Koeberlein B, Franz S, Zentgraf H, Bowden S, Bock C-T, Torresi J. Modulation of MAPK pathways and cell cycle byreplicating hepatitis B virus: factors contributing tohepatocarcinogenesis. J Hepatology 2007;47:325-37). The delivery system included a green fluorescent protein marker so that the proportion of infected cells could be quantified. Using this system approximately 100% of hepatocytes were infected with HBV. Cells were rested for 2 days after infection and then they were treated with the indicated agents. Forty eight hours after treatment cell viability was assessed using CellTiter-Glo® (Promega, Madison Wis. USA) according to the manufacturer's protocol. This experiment was performed in triplicate and repeated 2 times using 2 independent donors. The highest CellTiter-Glo result from one of the triplicate untreated samples was used to set the 100% viability mark.

With `Cc1cn([C@H]2C[C@H](N=[N+]=[N-])[C@@H](CO)O2)c(=O)[nH]c1=O` [AZT, Zidovudine] the CC50 at 6 days ([1]; high-test concentration 1,000 nM) was over 1000 nM, the “Antiviral Index (TC50/IC50)” value (HIV-1JR-CSF [2]) was over 584 and the IC50 (HIV-1JR-CSF [3]) was 1.71 nM.
In the case of `CC[C@H](NC(=O)[C@H](C)NC)C(=O)N1C[C@@H](O)C[C@H]1Cc1c(-c2[nH]c3cc(F)ccc3c2C[C@@H]2C[C@H](O)CN2C(=O)[C@H](CC)NC(=O)[C@H](C)NC)[nH]c2cc(F)ccc12` [Birinapant, birinapant], the CC50 at 6 days ([1]; high-test concentration 10 μM) is reported as 6470 nM, the “increase in cytotoxicity in the presence of TNF-α” value (human PBMCs) is reported as 1.6 fold and the “HIV infected cells that die” value [4] is reported as 55%. For the same compound, the “reduction in bacterial burden versus DMSO control” value ([5]; mice, intraperitoneal, 30 μg/g weekly x3, started 4 weeks after infection, p=0.012) was 0.33 Log10 CFU/lung, the “macroscopic appearance of the lungs” value ([5]; upon dissection after three weekly doses) was “pink, uniform and healthier in appearance” and the “reduction of HBV viral load compared to vehicle control” value (HBV; C57BL/6 mice, 30 mg/kg intraperitoneally weekly, after three doses) was 2 logs. The “HBV DNA in serum” value (HBV; C57BL/6 mice, 39 days after the first dose, all treated mice) was “no detectable HBV DNA”, the “efficacy against HBV when TNF-α is antagonized” value (HBV; HBV infected mice injected intraperitoneally with TNF-α antagonizing antibodies) was “abrogates the efficacy” and the “toxicity related to treatment” value [6] was “No toxicity”. For the same compound, the “death of primary human hepatocytes infected with HBV” value [7] was “not effective”, the IC50 (HIV-1JR-CSF [3]) was 250 nM and the “increase in antiviral potency in the presence of TNF-α” value (HIV-1JR-CSF [3]; fixed concentration (10 ng/mL) of TNF-α versus birinapant alone) was 6 fold.
With TNF-α the “reduction in HIV replication” value (HIV-1JR-CSF [3]; TNF-α alone, 10 ng/mL) was 35%.
For “TRAIL: TNF-related apoptosis inducing ligand”, the “death of primary human hepatocytes infected with HBV” value [7] was “virtually no efficacy”.

From US20160143995A1, “Method of Treating Intracellular Infection” (priority 2013, published 2016)
